Values after ≈ are worked out from the molar mass of the structure shown. Values joined by “and” are separate entries in the source; they are usually repeats but may differ in a detail not shown here. Equal entries are not always repeated. Structures can show the parent of a compound that is named as a salt. Where two headings read alike, the source gives them in different places.
Tests used:
[1] = molecular target: Dihydrofolate reductase (Escherichia coli, UniProt P0ABQ4); test: Dihydrofolate reductase inhibition; type: biochemical, E. coli
[2] = system: Strep.Faecalis CN 478; test: In vitro antibacterial activity (MIC); type: cell-based; settings: for MIC: Enterococcus faecalis, CN478
[3] = molecular target: T1, Dihydrofolate reductase (Rattus norvegicus, UniProt Q920D2); test: Dihydrofolate reductase inhibition; type: biochemical, Rat liver
T1 construct: Rat liver; from tissue; host or cells: rat liver
T1 sequence (Q920D2 1-187): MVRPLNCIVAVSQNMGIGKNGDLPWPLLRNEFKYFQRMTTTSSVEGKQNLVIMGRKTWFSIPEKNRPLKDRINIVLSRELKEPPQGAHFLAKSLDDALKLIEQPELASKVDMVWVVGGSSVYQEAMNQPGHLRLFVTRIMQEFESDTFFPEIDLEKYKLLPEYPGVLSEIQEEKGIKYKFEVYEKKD

[4] = system: St. pyogenes; test: In vitro antibacterial activity (MIC); type: cell-based; settings: for MIC: Streptococcus pyogenes
[5] = system: Staph.aureus CN 491; test: In vitro antibacterial activity (MIC); type: cell-based; settings: for MIC: Staphylococcus aureus
[6] = molecular target: Dihydrofolate reductase (Neisseria gonorrhoeae, UniProt P04174); test: biochemical; settings: N. gonorrhea enzyme; read-out: Dihydrofolate reductase inhibition, I50 x 10^8
[7] = system: E. coli CN 314; test: In vitro antibacterial activity (MIC); type: cell-based; settings: Escherichia coli, CN314
[8] = system: N. gonorrhea; test: In vitro antibacterial activity versus TMP, Difco test; type: cell-based; settings: activity relative to trimethoprim
[9] = system: Staphylococcus aureus; test: In vitro MIC against bovine mastitis strains; type: cell-based; settings: read-out: Approximate MIC
From the text: (§1) All organisms were isolated from the bovine udder.

[10] = system: Streptococcus dysgalactiae; test: In vitro MIC against bovine mastitis strains; type: cell-based; settings: read-out: Approximate MIC
From the text: as §1

[11] = system: Streptococcus agalactiae; test: In vitro MIC against bovine mastitis strains; type: cell-based; settings: read-out: Approximate MIC
From the text: as §1

[12] = system: Streptococcus uberis; test: In vitro MIC against bovine mastitis strains; type: cell-based; settings: Internal Ref. No. 359, isolated from the bovine udder, read-out: Approximate MIC
From the text: as §1

[13] = system: N. gonorrhea; test: In vitro antibacterial activity versus TMP, Wellcome test; type: cell-based; settings: activity relative to trimethoprim
[14] = molecular target: Dihydrofolate reductase (Plasmodium berghei, UniProt Q27713); test: biochemical; settings: P. berghei enzyme; read-out: Dihydrofolate reductase inhibition, I50 x 10^8
[15] = system: Staphylococcus aureus; test: In vitro MIC against bovine mastitis strains; type: cell-based; settings: "OXFORD", Internal Ref. No. 6571, read-out: Approximate MIC
[16] = LD50 intraperitoneal in male rats; settings: rat, in vivo, ip
Experimental: The LD50's ( expressed in rng/kg intraperitoneal) of two compounds of the present invention were determined in male rats.

[17] = read-out: MIC St. pyogenes CN 10
[18] = read-out: MIC St. pyogenes S3640
[19] = Internal Ref. No. 316, isolated from the bovine udder
[20] = Internal Ref. No. 317, isolated from the bovine udder
[21] = Internal Ref. No. 348, isolated from the bovine udder
[22] = Internal Ref. No. 349, isolated from the bovine udder
[23] = Internal Ref. No. 352, isolated from the bovine udder
[24] = Internal Ref. No. 353, isolated from the bovine udder
[25] = Internal Ref. No. 366, isolated from the bovine udder
[26] = Internal Ref. No. 367, isolated from the bovine udder
[27] = Internal Ref. No. 321, isolated from the bovine udder
[28] = Internal Ref. No. 371, isolated from the bovine udder
[29] = Rat liver enzyme, read-out: Dihydrofolate reductase inhibition, I50 x 10^8
[30] = E. coli enzyme, read-out: Dihydrofolate reductase inhibition, I50 x 10^8

Row | Compound | IC50 [1] [nM] | MIC [2] [µg/mL] | IC50 [3] [nM] | MIC [4, 17] [µg/mL] | MIC [4, 18] [µg/mL] | MIC ([5]; CN491) [µg/mL] | IC50 [6] [nM] | MIC [7] [µg/mL] | MIC [9, 19] [µM] | MIC [9, 20] [µM] | MIC [9, 21] [µM] | MIC [9, 22] [µM] | MIC [9, 23] [µM] | MIC [9, 24] [µM] | MIC [10, 25] [µM] | MIC [10, 26] [µM] | MIC [11, 27] [µM] | MIC [11, 28] [µM] | MIC [12] [µM] | Act., vs TMP N. gonorrhea Wellcome test [13] | other results
1 | COc1cc(Cc2cnc(N)nc2N)cc(OCCSc2ccccc2)c1OC [Example 14, 2,4-Diamino-5-(3,4-dimethoxy-5-(2-(phenylthio)ethoxy)benzyl)pyrimidine] | 5.3 | 0.5 (≈ 1.21 µM) | 37000 | 0.5 (≈ 1.21 µM) | 0.5 (≈ 1.21 µM) | 0.5 (≈ 1.21 µM) | 11.4 | 1 (≈ 2.42 µM) |  |  |  |  |  |  |  |  |  |  |  |  | 
2 | COc1cc(Cc2cnc(N)nc2N)cc(OCCCCc2ccccc2)c1OC [compound 3, 2,4-Diamino-5-(3,4-dimethoxy-5-(4-phenylbutoxy)benzyl)pyrimidine] | 2.3 | 0.1 (≈ 0.245 µM) | 43000 | 0.1 (≈ 0.245 µM) | 0.1 (≈ 0.245 µM) | 0.03 (≈ 0.0734 µM) | 18 | 3 (≈ 7.34 µM) | 0.075 (≈ 0.0306 µg/mL) | 0.025 (≈ 0.0102 µg/mL) | 0.075 (≈ 0.0306 µg/mL) | 0.075 (≈ 0.0306 µg/mL) | 0.075 (≈ 0.0306 µg/mL) | 0.025 (≈ 0.0102 µg/mL) | 0.75 (≈ 0.306 µg/mL) | 0.75 (≈ 0.306 µg/mL) | 0.25 (≈ 0.102 µg/mL) | 0.25 (≈ 0.102 µg/mL) | 0.25 (≈ 0.102 µg/mL) | 1.54 | Act., vs TMP N. gonorrhea Difco test [8]: 11.35; IC50 [14]: 11 nM; MIC [15]: 0.025 µM (≈ 0.0102 µg/mL)
3 | COc1cc(Cc2cnc(N)nc2N)cc(OCCCCOc2ccccc2)c1OC [Example 10, 2,4-Diamino-5-(3,4-dimethoxy-5-(4-phenoxybutoxy)benzyl)pyrimidine hydrochloride] | 4 |  | 74000 |  |  |  | 19 |  |  |  |  |  |  |  |  |  |  |  |  |  | 
4 | CCc1cc(Cc2cnc(N)nc2N)cc(CC)c1OCCOCc1ccccc1 [Example 6, 2,4-Diamino-5-(3,5-diethyl-4-(2-benzyloxyethoxy)benzyl)pyrimidine] |  | 0.3 (≈ 0.738 µM) |  | 3 (≈ 7.38 µM) | 1 (≈ 2.46 µM) | 3 (≈ 7.38 µM) | 48 | 10 (≈ 24.6 µM) |  |  |  |  |  |  |  |  |  |  |  | 0.35 | IC50 [3, 29]: 26000 nM; IC50 [14]: 34 nM
5 | 2,4-diamino-5-(3,4-dime-thoxy-5-(3-p-nitrophenyl-propoxy)benzyl)pyrimidine |  |  |  |  |  |  |  |  |  |  |  |  |  |  |  |  |  |  |  |  | IC50 [1, 30]: 17 nM; IC50 [3, 29]: 25000 nM
6 | COc1cc(Cc2cnc(N)nc2N)cc(OCCOCc2ccccc2)c1OC [compound 4, 2,4-Diamino-5-(3,4-dimethoxy-5-(2-benzyloxyethoxy)benzyl)pyrimidine] | 5.4 |  | 300000 |  |  |  | 78 |  | 0.25 (≈ 0.103 µg/mL) | 0.075 (≈ 0.0308 µg/mL) | 0.25 (≈ 0.103 µg/mL) | 0.075 (≈ 0.0308 µg/mL) | 0.25 (≈ 0.103 µg/mL) | 0.075 (≈ 0.0308 µg/mL) | 3.3 (≈ 1.35 µg/mL) | 1 (≈ 0.41 µg/mL) | 0.25 (≈ 0.103 µg/mL) | 2.5 (≈ 1.03 µg/mL) | 2.5 (≈ 1.03 µg/mL) |  | MIC [15]: 0.075 µM (≈ 0.0308 µg/mL)
7 | COc1cc(Cc2cnc(N)nc2N)cc(OCCCOc2ccccc2)c1OC [compound 5, 2,4-Diamino-5-(3,4-dimethoxy-5-(3-phenoxypropoxy)benzyl)pyrimidine] | 37 | 0.1 (≈ 0.244 µM) | 80000 | 0.3 (≈ 0.731 µM) | 0.3 (≈ 0.731 µM) | 0.1 (≈ 0.244 µM) | 32 | 1 (≈ 2.44 µM) |  |  |  |  |  |  |  |  |  |  |  | 4.12 | Act., vs TMP N. gonorrhea Difco test [8]: 11.28; IC50 [14]: 150 nM
8 | COc1cc(Cc2cnc(N)nc2N)cc(OCCSCc2ccccc2)c1OC [Example 15, 2,4-Diamino-5-(3,4-dimethoxy-5-(2-(benzylthio)ethoxy)benzyl)pyrimidine] | 2 | 0.1 (≈ 0.234 µM) | 47000 | 0.5 (≈ 1.17 µM) | 0.5 (≈ 1.17 µM) | 0.05 (≈ 0.117 µM) | 18 | 0.5 (≈ 1.17 µM) |  |  |  |  |  |  |  |  |  |  |  |  | 
9 | COc1cc(Cc2cnc(N)nc2N)cc(OCCCc2ccccc2)c1OC [compound 1, 2,4-Diamino-5-(3,4-dimethoxy-5-(3-phenylpropoxy)benzyl)pyrimidine] | 4.8 | 0.1 (≈ 0.254 µM) | 94000 | 0.3 (≈ 0.761 µM) | 0.3 (≈ 0.761 µM) | 0.03 (≈ 0.0761 µM) | 15 | 1 (≈ 2.54 µM) | 0.025 (≈ 0.00986 µg/mL) | 0.025 (≈ 0.00986 µg/mL) | 0.025 (≈ 0.00986 µg/mL) | 0.025 (≈ 0.00986 µg/mL) | 0.075 (≈ 0.0296 µg/mL) | 0.025 (≈ 0.00986 µg/mL) | 0.75 (≈ 0.296 µg/mL) | 0.25 (≈ 0.0986 µg/mL) | 0.075 (≈ 0.0296 µg/mL) | 0.75 (≈ 0.296 µg/mL) | 2.5 (≈ 0.986 µg/mL) | 5.46 | Act., vs TMP N. gonorrhea Difco test [8]: 12.81; LD50 [16]: > 100 mg/kg; IC50 [14]: 100 nM; MIC [15]: 0.025 µM (≈ 0.00986 µg/mL)
10 | 2,4-dimethoxy-5-(dime-thoxy-5-(3-p-aminophenyl-propoxy)benzyl)pyrimidine |  |  |  |  |  |  | 29 |  |  |  |  |  |  |  |  |  |  |  |  |  | IC50 [1, 30]: 7.2 nM; IC50 [3, 29]: 81000 nM
11 | COc1cc(Cc2cnc(N)nc2N)cc(OC)c1OC [Trimethoprim, reference compound] |  | 0.1 (≈ 0.344 µM) |  |  |  |  |  | 0.1 (≈ 0.344 µM) | 1 (≈ 0.29 µg/mL) | 0.33 (≈ 0.0958 µg/mL) | 1 (≈ 0.29 µg/mL) | 1 (≈ 0.29 µg/mL) | 3.3 (≈ 0.958 µg/mL) | 1 (≈ 0.29 µg/mL) | 3.3 (≈ 0.958 µg/mL) | 1 (≈ 0.29 µg/mL) | 1 (≈ 0.29 µg/mL) | 3.3 (≈ 0.958 µg/mL) | 10 (≈ 2.9 µg/mL) |  | MIC Strep.Faecalis CN 478 ([2]; strain CN 478, cell prints compound/trimethoprim): 0.1 µg/mL (≈ 0.344 µM); MIC ([4]; strain CN 10, cell prints compound/trimethoprim, read-out: MIC St. pyogenes CN 10): 0.5 µg/mL (≈ 1.72 µM); MIC St. pyogenes CN 10 ([4]; strain CN 10, cell prints compound/trimethoprim): 0.3/0.3 ug/ml and 0.3 ug/ml; MIC ([5]; CN491, strain CN 491, cell prints compound/trimethoprim): 0.5 µg/mL (≈ 1.72 µM); MIC Staph.aureus CN 491 ([5]; strain CN 491, cell prints compound/trimethoprim): 0.3 ug/ml and 0.3/0.3 ug/ml and 0.5/0.5 ug/ml; MIC [15]: 1 µM (≈ 0.29 µg/mL)

Reference: patent EP0054756A2, “Antibacterial benzylpyrimidines” (THE WELLCOME FOUNDATION LIMITED, priority 1980, dated 1982)
